Assay results published in PubChem BioAssay AID2060507 (Molecular Pharmacology Branch, DTP, NCI, 2025).

System: 519858-162-T-J1-PDC complex spheroid viability
Test: Anticancer human tumor 519858-162-T-J1-PDC patient-derived colon adenocarcinoma cell line growth inhibition [GQUAD]
Details: for IC50: curve of first compound; for viability, T/C: stronger effect = lower value
In short: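 Viability of tumor cells grown as complex spheroids with endothelial and stromal cells, exposed to drug combinations. Top concentration at or near clinical Cmax (else 10 microM), diluted in half-log increments.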

[1] = second compound 0.0316 µM, first compound 0.0316 µM
[2] = second compound 0.0316 µM, first compound 0.1 µM
[3] = second compound 0.0316 µM, first compound 0.316 µM
[4] = second compound 0.0316 µM, first compound 1 µM
[5] = second compound 0.0316 µM, first compound 3.16 µM
[6] = second compound 0.0316 µM, first compound 10 µM
[7] = second compound 0.1 µM, first compound 0.0316 µM
[8] = second compound 0.1 µM, first compound 0.1 µM
[9] = second compound 0.1 µM, first compound 0.316 µM
[10] = second compound 0.1 µM, first compound 1 µM
[11] = second compound 0.1 µM, first compound 3.16 µM
[12] = second compound 0.1 µM, first compound 10 µM
[13] = second compound 0.316 µM, first compound 0.0316 µM
[14] = second compound 0.316 µM, first compound 0.1 µM
[15] = second compound 0.316 µM, first compound 0.316 µM
[16] = second compound 0.316 µM, first compound 1 µM
[17] = second compound 0.316 µM, first compound 3.16 µM
[18] = second compound 0.316 µM, first compound 10 µM
[19] = second compound 1 µM, first compound 0.0316 µM
[20] = second compound 1 µM, first compound 0.1 µM
[21] = second compound 1 µM, first compound 0.316 µM
[22] = second compound 1 µM, first compound 1 µM
[23] = second compound 1 µM, first compound 3.16 µM
[24] = second compound 1 µM, first compound 10 µM
[25] = second compound 3.16 µM, first compound 0.0316 µM
[26] = second compound 3.16 µM, first compound 0.1 µM
[27] = second compound 3.16 µM, first compound 0.316 µM
[28] = second compound 3.16 µM, first compound 1 µM
[29] = second compound 3.16 µM, first compound 3.16 µM
[30] = second compound 3.16 µM, first compound 10 µM
[31] = second compound 10 µM, first compound 0.0316 µM
[32] = second compound 10 µM, first compound 0.1 µM
[33] = second compound 10 µM, first compound 0.316 µM
[34] = second compound 10 µM, first compound 1 µM
[35] = second compound 10 µM, first compound 3.16 µM
[36] = second compound 10 µM, first compound 10 µM
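Throughout, for viability, T/C: 100% = DMSO vehicle control viability.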

Compound `CC1COCCN1c1cc(-c2ccnn2C)c2ccnc(-c3ccn[nH]3)c2n1` (stereo not drawn) + CN(C)c1ccc(Nc2c3ccc(NC(=O)CCN4CCCC4)cc3nc3cc(NC(=O)CCN4CCCC4)ccc23)cc1 has an IC50 (second compound 0.0316 µM) of 4.24 µM, an IC50 (second compound 0.1 µM) of 4.35 µM and an IC50 (second compound 0.316 µM) of 7.09 µM. For the same compound, the IC50 (second compound 1 µM) was 4.74 µM, the IC50 (second compound 3.16 µM) was 5.33 µM and the IC50 (second compound 10 µM) was 4.46 µM. The viability, T/C [1] was 87.2%, the viability, T/C [2] was 125% and the viability, T/C [3] was 88%. It also gave a viability, T/C [4] of 101%, a viability, T/C [5] of 54% and a viability, T/C [6] of 38%. It also gave a viability, T/C [7] of 78.2%, a viability, T/C [8] of 106% and a viability, T/C [9] of 86.4%. The viability, T/C [10] was 124%, the viability, T/C [11] was 55.4% and the viability, T/C [12] was 36.1%. It also gave a viability, T/C [13] of 91.3%, a viability, T/C [14] of 86.8% and a viability, T/C [15] of 79.3%. For the same compound, the viability, T/C [16] was 101%, the viability, T/C [17] was 79.6% and the viability, T/C [18] was 37.4%. For the same compound, the viability, T/C [19] was 100%, the viability, T/C [20] was 85.7% and the viability, T/C [21] was 73.8%. For the same compound, the viability, T/C [22] was 102%, the viability, T/C [23] was 63.4% and the viability, T/C [24] was 25.3%. The viability, T/C [25] was 87.5%, the viability, T/C [26] was 83.9% and the viability, T/C [27] was 106%. The viability, T/C [28] was 92.4%, the viability, T/C [29] was 58.7% and the viability, T/C [30] was 39.5%. The viability, T/C [31] was 71.2%, the viability, T/C [32] was 101% and the viability, T/C [33] was 73.5%. The viability, T/C [34] was 100%, the viability, T/C [35] was 51.1% and the viability, T/C [36] was 47.3%.
For `CC1COCCN1c1cc(C2(O)CC3CCC(C2)O3)c2cnn(-c3ccn[nH]3)c2n1` (stereo not drawn) + CN(C)c1ccc(Nc2c3ccc(NC(=O)CCN4CCCC4)cc3nc3cc(NC(=O)CCN4CCCC4)ccc23)cc1, the IC50 (second compound 0.0316 µM) was 8.37 µM, the IC50 (second compound 0.1 µM) was greater than 10 µM and the IC50 (second compound 0.316 µM) was greater than 10 µM. It also gave an IC50 (second compound 1 µM) of 9.4 µM, an IC50 (second compound 3.16 µM) greater than 10 µM and an IC50 (second compound 10 µM) greater than 10 µM. The viability, T/C [1] was 84.3%, the viability, T/C [2] was 89% and the viability, T/C [3] was 87.3%. It also gave a viability, T/C [4] of 90.2%, a viability, T/C [5] of 114% and a viability, T/C [6] of 42%. For the same compound, the viability, T/C [7] was 77.5%, the viability, T/C [8] was 76.9% and the viability, T/C [9] was 76.5%. It also gave a viability, T/C [10] of 73.5%, a viability, T/C [11] of 75.2% and a viability, T/C [12] of 71.6%. For the same compound, the viability, T/C [13] was 106%, the viability, T/C [14] was 65.5% and the viability, T/C [15] was 98.2%. It also gave a viability, T/C [16] of 105%, a viability, T/C [17] of 113% and a viability, T/C [18] of 57%. For the same compound, the viability, T/C [19] was 104%, the viability, T/C [20] was 75.6% and the viability, T/C [21] was 99.8%. The viability, T/C [22] was 79.2%, the viability, T/C [23] was 88.4% and the viability, T/C [24] was 47.8%. The viability, T/C [25] was 71.1%, the viability, T/C [26] was 66.8% and the viability, T/C [27] was 98.3%. For the same compound, the viability, T/C [28] was 73.2%, the viability, T/C [29] was 74.3% and the viability, T/C [30] was 65.3%. The viability, T/C [31] was 85%, the viability, T/C [32] was 81% and the viability, T/C [33] was 59.9%. It also gave a viability, T/C [34] of 60.7%, a viability, T/C [35] of 76.5% and a viability, T/C [36] of 43.1%.
`COc1ccc([C@@H](O)c2cc(-c3ncnc4cc(N5CCOCC5)ccc34)c(F)cc2Cl)nn1` + CN(C)c1ccc(Nc2c3ccc(NC(=O)CCN4CCCC4)cc3nc3cc(NC(=O)CCN4CCCC4)ccc23)cc1 gave an IC50 (second compound 0.0316 µM) greater than 10 µM, an IC50 (second compound 0.1 µM) greater than 10 µM and an IC50 (second compound 0.316 µM) greater than 10 µM. It also gave an IC50 (second compound 1 µM) greater than 10 µM, an IC50 (second compound 3.16 µM) greater than 10 µM and an IC50 (second compound 10 µM) greater than 10 µM. For the same compound, the viability, T/C [1] was 113%, the viability, T/C [2] was 130% and the viability, T/C [3] was 110%. It also gave a viability, T/C [4] of 82.1%, a viability, T/C [5] of 98% and a viability, T/C [6] of 97.7%. It also gave a viability, T/C [7] of 119%, a viability, T/C [8] of 90.7% and a viability, T/C [9] of 92.1%. For the same compound, the viability, T/C [10] was 148%, the viability, T/C [11] was 87.9% and the viability, T/C [12] was 127%. The viability, T/C [13] was 86.8%, the viability, T/C [14] was 108% and the viability, T/C [15] was 95.2%. The viability, T/C [16] was 92.5%, the viability, T/C [17] was 104% and the viability, T/C [18] was 85.8%. The viability, T/C [19] was 92.6%, the viability, T/C [20] was 75.7% and the viability, T/C [21] was 72%. For the same compound, the viability, T/C [22] was 88.7%, the viability, T/C [23] was 57.4% and the viability, T/C [24] was 82.2%. For the same compound, the viability, T/C [25] was 102%, the viability, T/C [26] was 65.1% and the viability, T/C [27] was 53.8%. For the same compound, the viability, T/C [28] was 66.3%, the viability, T/C [29] was 94.1% and the viability, T/C [30] was 83.5%. It also gave a viability, T/C [31] of 74.5%, a viability, T/C [32] of 95.2% and a viability, T/C [33] of 73.4%. It also gave a viability, T/C [34] of 86.1%, a viability, T/C [35] of 72.4% and a viability, T/C [36] of 88.4%.
`Cn1ncnc1[C@H]1c2n[nH]c(=O)c3cc(F)cc(c23)N[C@@H]1c1ccc(F)cc1` + CN(C)c1ccc(Nc2c3ccc(NC(=O)CCN4CCCC4)cc3nc3cc(NC(=O)CCN4CCCC4)ccc23)cc1 was tested, and the IC50 (second compound 0.0316 µM) was greater than 0.316 µM, the IC50 (second compound 0.1 µM) was greater than 0.316 µM and the IC50 (second compound 0.316 µM) was greater than 0.316 µM. It also gave an IC50 (second compound 1 µM) greater than 0.316 µM, an IC50 (second compound 3.16 µM) greater than 0.316 µM and an IC50 (second compound 10 µM) greater than 0.316 µM. For the same compound, the viability, T/C (second compound 0.0316 µM, first compound 0.000999 µM) was 74.5%, the viability, T/C (second compound 0.0316 µM, first compound 0.00316 µM) was 119% and the viability, T/C (second compound 0.0316 µM, first compound 0.00999 µM) was 146%. The viability, T/C [1] was 66.9%, the viability, T/C (second compound 0.0316 µM, first compound 0.0999 µM) was 79.6% and the viability, T/C [3] was 118%. It also gave a viability, T/C (second compound 0.1 µM, first compound 0.000999 µM) of 96%, a viability, T/C (second compound 0.1 µM, first compound 0.00316 µM) of 109% and a viability, T/C (second compound 0.1 µM, first compound 0.00999 µM) of 79%. It also gave a viability, T/C [7] of 103%, a viability, T/C (second compound 0.1 µM, first compound 0.0999 µM) of 104% and a viability, T/C [9] of 105%. It also gave a viability, T/C (second compound 0.316 µM, first compound 0.000999 µM) of 94.4%, a viability, T/C (second compound 0.316 µM, first compound 0.00316 µM) of 139% and a viability, T/C (second compound 0.316 µM, first compound 0.00999 µM) of 99.1%. The viability, T/C [13] was 84.6%, the viability, T/C (second compound 0.316 µM, first compound 0.0999 µM) was 83% and the viability, T/C [15] was 109%. The viability, T/C (second compound 1 µM, first compound 0.000999 µM) was 75.3%, the viability, T/C (second compound 1 µM, first compound 0.00316 µM) was 68.4% and the viability, T/C (second compound 1 µM, first compound 0.00999 µM) was 82.2%. For the same compound, the viability, T/C [19] was 63.5%, the viability, T/C (second compound 1 µM, first compound 0.0999 µM) was 88.9% and the viability, T/C [21] was 119%. The viability, T/C (second compound 3.16 µM, first compound 0.000999 µM) was 104%, the viability, T/C (second compound 3.16 µM, first compound 0.00316 µM) was 97.8% and the viability, T/C (second compound 3.16 µM, first compound 0.00999 µM) was 78.6%. The viability, T/C [25] was 63.2%, the viability, T/C (second compound 3.16 µM, first compound 0.0999 µM) was 54.8% and the viability, T/C [27] was 91.9%. It also gave a viability, T/C (second compound 10 µM, first compound 0.000999 µM) of 89.9%, a viability, T/C (second compound 10 µM, first compound 0.00316 µM) of 57.5% and a viability, T/C (second compound 10 µM, first compound 0.00999 µM) of 82.4%. It also gave a viability, T/C [31] of 79.6%, a viability, T/C (second compound 10 µM, first compound 0.0999 µM) of 67.5% and a viability, T/C [33] of 65.7%.
